# “Also recorded” adds a separate entry of the source.
# How the values were obtained:
# AZOOR [1] = assay: Clinical case: therapeutic effect on AZOOR, static visual field examination (Humphrey visual field analyzer); type: in vivo, human patient; settings: person
# Source text: Example of Clinical Trial (Therapeutic Effect on AZOOR)
# The patient became aware of dark and blurred vision in the center of their visual field on Sep. 1, 1999, and visited Ohyachi Kyoritsu Eye Clinic on September 4 in the same year. […] ERG was subnormal and normal for the right and left eyes, respectively. […] FAG detected mild leakage of fluorescein from the optic disc of the right eye. In view of these observations, optic nerve disorder was suspected and the patient was made to visit a brain surgeon in the neighborhood to receive CT and MRT examinations. However, no abnormality was found. […] To treat the eye symptom, the clinic prescribed oral medications such as drug for ameliorating circulation for a while, but no improvement of visual field was observed. Thus, on Oct. 1, 1999, the patient was referred to the Department of ophthalmology at Sapporo Medical University, School of Medicine for close examination.
# Visual acuity was Vd=1.2 and Vs=1.2. Although pupils were round and equal in size, the right eye was RAPD(+) but no oculomotor abnormalities were observed. […] In the static visual field examination, reduction of the sensitivity in the central visual field was observed.
# Oral administration of prednisolone (40 mg/day) was started on Oct. 1, 1999. The patient became aware of dark and blurred vision also in the center of the visual field of their left eye on Oct. 20, 1999. […]
# [2] = launched ten years ago; cited from earlier work
# apoptosis caused by CAR = assay: Therapeutic effect on cancer-associated neuropathy: ERG in rats given anti-recoverin and anti-hsp70 antibodies into the vitreous body; type: in vivo, Lewis rats; settings: nilvadipine 3.2 mg/kg/day peritoneal for two weeks with antibody infusion into vitreous body; follow-up five weeks; 24 h light; FIG. 1
# Procedure: Example of Experiment (Therapeutic Effect on Cancer-Associated Neuropathy)
# Test animal: Lewis rats (8 weeks of age) Treatment group 5 animals (10 eyes) Control group 5 animals (10 eyes)
# Photoenvironment: Apoptosis (cell death) was induced under light for 24 hours.
# Test drugs: Nilvadipine (3.2 mg/kg/day) by peritoneal administration (dissolving solution) polyethylene glycol 400: ethanol:water=1:1:2 Predonine (0.6 μg/kg/day) by intramuscular injection (dissolving solution) PBS (phosphate buffer solution) Cyclosporine A (10 mg/kg/day) by intramuscular injection (dissolving solution) olive oil
# Antibodies: anti-recoverin antibody (5 μl/eye) anti-hsp70 antibody (5 μl/eye)
# Test drugs were administered for two weeks along with infusion of antibodies into vitreous body of the eye.
# Follow-up observation was performed for five weeks after the start of administration. PBS alone was administered to the control group.
# In FIG. 1, the vertical axis represents ERG (electroretinogram) amplitude, and the horizontal axis is the lapse of time in weeks. Δ: nilvadipine group; □: predonine group; ⋄: cyclosporin A group; and ◯: control group.
# AZOOR [3] = settings: reported case, administration for two weeks; cited from earlier work
structure (smiles),measurement,setting,value
"COC(=O)C1=C(C#N)NC(C)=C(C(=O)OC(C)C)C1c1cccc([N+](=O)[O-])c1 (centres unmarked) [nilvadipine, isopropyl 6-cyano-5-methoxycarbonyl-2-methyl-4-(3-nitrophenyl)-1,4-di hydropyridine-3-carboxylate ester]",static visual field / visual sensitivity after nilvadipine,"AZOOR [1]; two months after start of oral nilvadipine (Depo-Medrol sub-Tenon's injection three days earlier), FIGS. 4 and 5",remarkable improvement of visual sensitivity
same,side effects,[2],no noteworthy serious side effects
same,"ERG (electroretinogram) amplitude, effectiveness compared with the other test drugs",apoptosis caused by CAR,more effective than predonine and cyclosporin A
C[C@]12C=CC(=O)C=C1CC[C@@H]1[C@@H]2[C@@H](O)C[C@@]2(C)[C@H]1CC[C@]2(O)C(=O)CO [prednisolone],visual field defect under oral prednisolone,"AZOOR [1]; oral prednisolone 40 mg/day reduced to 10 mg/day, FIGS. 2 and 3",no amelioration of the visual field defect; also recorded: could not improve the visual field
Nc1nc2c(ncn2COCCO)c(=O)[nH]1 [aciclovir],progress of visual field defect in the other eye,AZOOR [3],stopped

# — patent publication US20030114498A1, “Remedies for malignant tumor-concomitant neurosis and azoor or analogous diseases thereof” (priority 2002, published 2003)
